Assay results from patent publication EP2022796A1, “Amorphous ciclesonide” (Nycomed GmbH, priority 2007, dated 2009).
≈ marks a conversion by molar mass, not a printed value.

Key:
Type in all cases: physicochemical
[1] = Dissolution experiments in water (dissolution kinetics); conditions: 37°C
Procedure: For each timepoint (5 min, 10 min, 20 min, 35 min, 60 min and 1440 min) of the dissolution experiment, three samples each of X-ray amorphous and crystalline ciclesonide were prepared by weighing a defined amount of in each case about 15 mg into a 250 ml conical wide-necked Erlenmeyer flask and stirring (850 rpm, glass coated magnetic stir bar, having a length of 2.4 cm and a diameter of 0.59 cm) the samples at 37°C in 100 ml water (Millipore quality, ELIX 3, Gradient A 10, pH 5.92 - 6.00). The moment of the addition of water was defined as to. The tempering of the samples was performed using an air bath. After the desired stirring time, the complete samples were filtered through a 0.2 µm membrane filter (Schleicher & Schuell, RC 0.2 µm Spartan 30/A) and concentrated on a Sep-Pak cartridge (Waters Sep-Pak cartridge C18, WAT051910). The cartridge was then eluted with ethanol (gradient grade, Merck). The ciclesonide in the ethanol solution was then quantified by HPLC (LaChrom®-HPLC System Series 7000, column: Zorbax SB phenyl, eluent: water/ethanol 38 % : 62 % (v/v) isocratic, column temperature: 60°C, injection volume: 50 µL, UV-detection at 243 nm) against an external standard.

[2] = Saturation solubility experiments in water; conditions: 37°C, 30 min ultrasonic treatment then stirred 24 hours; for saturation solubility: 1440 min
Procedure: Defined amounts of in each case about 14 to 25 mg of X-ray amorphous or crystalline ciclesonide were weighed into a conical Erlenmeyer flask equipped with a rubber stopper (n = 3). 100 ml of water (Millipore quality, ELIX 3, Gradient A 10, pH 5.92 - 6.00) were added and 30 minutes of ultrasonic treatment was applied to the samples. Afterwards the samples were stirred in the dark for 24 hours at 37°C in a water bath. After the desired stirring time, each sample was filtered through a 0.2 µm membrane filter (Schleicher & Schuell, RC 0.2 µm Spartan 30/A) and concentrated on a Sep-Pak cartridge (Waters Sep-Pak cartridge C18, WAT051910). Then the cartridge was eluted with ethanol (gradient grade, Merck). The ciclesonide in the ethanol solution was then quantified by HPLC (LaChrom®-HPLC System Series 7000, column: Zorbax SB phenyl, eluent: water/ethanol 38 % : 62 % (v/v) isocratic, column temperature: 60°C, injection volume: 50 µL, UV-detection at 243 nm) against an external standard.

[3] = Stability under elevated pressure (recrystallization); conditions: pressure of up to 2.500 for 5 min
From the text: Such a stability against pressure is particularly desirable when a pharmaceutical agent is used for preparation of solid pharmaceutical compositions such as tablets or granules.

[4] = Hygroscopicity
[5] = listed as crystalline form of ciclesonide

| Structure (SMILES) | concentration of dissolved ingredient within 5 minutes ([1]; 5 minutes) | concentration of dissolved ingredient after 20 minutes ([1]; 20 minutes) | concentration of dissolved ingredient relative to crystalline ciclesonide after 1 hour ([1]; after 1 hour, amorphous versus crystalline) | concentration of dissolved ciclesonide after 24 hours [1] | saturation solubility [2] | stability under pressure (signs of recrystallization) [3] | hygroscopicity [4] | solubility at 1 h ([1]; after 1 hour) | concentration of dissolved ciclesonide after 24 hours [1, 5] | solubility at 24 h [2] | saturation solubility [2, 5] |
| --- | --- | --- | --- | --- | --- | --- | --- | --- | --- | --- | --- |
| CC(C)C(=O)OCC(=O)C12OC(C3CCCCC3)OC1CC1C3CCC4=CC(=O)C=CC4(C)C3C(O)CC12C (stereo not drawn) [amorphous ciclesonide, 16,17-[(Cyclohexyl-methylene)bis(oxy)]-11-hydroxy-21-(2-methyl-1-oxopropoxy)-pregna-1,4-diene-3,20-dione[11β,16α]] | 290 ng/mL | 340 ng/mL | about sevenfold higher | 105 ng/mL | 0.0916 ± 0.0052 µg/mL | did not show any signs of recrystallization | not hygroscopic |  |  |  |  |
| CC(C)C(=O)OCC(=O)C12OC(C3CCCCC3)OC1CC1C3CCC4=CC(=O)C=CC4(C)C3C(O)CC12C (stereo not drawn) [crystalline ciclesonide, 16,17-[(Cyclohexyl-methylene)bis(oxy)]-11-hydroxy-21-(2-methyl-1-oxopropoxy)-pregna-1,4-diene-3,20-dione[11β,16α], reference compound] |  |  |  | 64 ng/mL | 0.0901 ± 0.0022 µg/mL |  |  | ~0.05 µg/mL (≈ 0.0925 µM) | about 64 µg/l | 0.091 µg/mL (≈ 0.168 µM) | about 91 µg/l |
